“And” between values parts separate entries of the source, which are not always exact repeats. Identical values can stand only once.
Columns and labels:
[1] = tested on: human skin; assay: Depigmenting power on the skin of DHEA administered orally, colorimetry b* (Minolta CR200 chromameter), randomized double-blind clinical study versus placebo; format: in vivo; conditions: oral DHEA 50 mg per day, 12 months, healthy female volunteers 60 to 80 years old; p=0.006, Wilcoxon test
Description: The evaluation was carried out using a randomized double-blind clinical study on 140 individuals. The inclusion criteria were as follows: healthy female volunteers free of any severe pathological condition and 60 to 80 years old.
The treatment consisted, for 12 months, of a daily dose of 50 mg of DHEA, taken in the morning, in the form of a breakable tablet, for half the individuals, or of a placebo for the other half of the individuals.
The skin pigmentation is measured at the start of treatment (TO) and after 12 months (T12), by colorimetry using a Minolta CR200 chromameter (Minolta, 365, route de Saint-Germain 78424 Carrières sur Seine).
This machine describes the colors in a three-dimensional space, using the system of coordinates L, a* and b* and recommended by the CIE in 1976. In this system, L* expresses the luminance or clarity of the color (0 corresponding to black and 100 to white), a is the component for separation between green (negative) and red (positive) and b*, which varies from blue (negative) to yellow (positive) expresses the pigmentation of the skin. The latter parameter was used to evaluate the change in skin color during the treatment.
The machine is calibrated on a standard “white” (surface provided with the machine) at the beginning of each day of measurement and the calibration is controlled throughout the day. […]

[2] = tested on: hair (degree of canities); assay: Effect of oral DHEA on canities, questionnaire at end of randomized double-blind clinical study versus placebo; format: in vivo, human; conditions: oral DHEA 50 mg daily, 6 months
Description: The evaluation was carried out using a randomized double-blind clinical study on 140 individuals. The inclusion criteria were as follows: healthy male volunteers free of any severe pathological condition and 60 to 80 years old.
The treatment consisted, for 6 months, of a daily dose of 50 mg of DHEA, taken in the morning, in the form of a breakable tablet, for half the individuals, or of its placebo for the other half of the individuals.
At the end of the 6 months of treatment, the individuals answered a series of questions concerning the state of their hair and the effect of the treatment on various parameters, in particular regarding their degree of canities (improvement, worsening or no change in the number of white hairs).
The statistical analysis is performed with Wilcoxon tests.

[3] = healthy male volunteers 60 to 80 years old, total 64

## C[C@]12CC[C@H](O)CC1=CC[C@@H]1[C@@H]2CC[C@]2(C)C(=O)CC[C@@H]12 [DHEA, dehydroepiandrosterone]
[1]
  skin pigmentation (b*) compared to the placebo group: significant decrease in pigmentation
[2]; [3]
  degree of canities: Improvement (number of individuals, number of white hairs decreased): 5
  degree of canities: No change (number of individuals): 59
  degree of canities: Worsening (number of individuals): no individual experienced a worsening and 0
[2]; difference between treatments significant, p=0.0094, Wilcoxon test
  overall effect on hair pigmentation versus placebo: propigmenting effect on hair

From US20030083323A1, “Oral use of dehydroepiandrosterone and some of its derivatives as pigmentation regulators” (priority 2000, published 2003)
